Laboratory results from EPA's ToxRefDB 2.

Columns and labels:
[1] = tested on: rat; settings: Subchronic oral toxicity in rodents, sprague dawley, Feed, dose end: 90 day, group: systemic, systemic / in life observation / body weight / body weight + systemic / in life observation / body weight / body weight gain
[2] = tested on: dog; settings: Chronic toxicity, beagle, Oral, Feed, dose end: 52 week, group: systemic
[3] = tested on: rabbit; settings: Prenatal developmental toxicity study, new zealand white, Oral, Gavage/Intubation, dose end: 28 GD
[4] = tested on: mouse; settings: Carcinogenicity, cd1, Oral, [Not Specified], dose end: 79 week, group: systemic
[5] = tested on: dog; settings: Subchronic oral toxicity in nonrodent, beagle, Feed, dose end: 13 week, group: systemic, systemic / in life observation / body weight / body weight gain + systemic / in life observation / clinical signs / anemia + systemic / in …
[6] = tested on: rat; settings: Combined chronic toxicity/carcinogenicity, sprague dawley, Oral, Feed, dose end: 24 month, group: systemic
[7] = tested on: rat; settings: Multigenerational reproductive toxicity study, sprague dawley, Oral, Feed, dose end: 2 generation
[8] = tested on: dog; settings: Subchronic oral toxicity in nonrodent, beagle, Capsule, dose end: 13 week, group: systemic
[9] = tested on: rat; settings: Subchronic oral toxicity in rodents, Sprague-Dawley, Feed, dose end: 90 day, group: systemic, systemic / in life observation / body weight / body weight gain
[10] = systemic / clinical chemistry / alanine aminotransferase (alt/sgpt) / alanine aminotransferase (alt/sgpt)
[11] = systemic / hematology / anemia / anemia - nos + systemic / hematology / erythrocyte (rbc) count differential / erythrocyte (rbc) + systemic…
[12] = group: developmental, developmental / developmental malformation / bone / ossification sites + developmental / developmental malformation / lung / absent + …
[13] = group: maternal, reproductive / reproductive performance / premature delivery / premature delivery + systemic / in life observation / clinical signs / …
[14] = systemic / in life observation / body weight / body weight + systemic / in life observation / food consumption / food consumption + systemic…
[15] = systemic / organ weight / liver / relative to body weight + systemic / pathology microscopic / liver / infiltration cellular
[16] = group: offspring, developmental / developmental landmark / preputial separation / preputial separation + systemic / in life observation / body weight / …
[17] = group: parental, systemic / in life observation / body weight / body weight + systemic / in life observation / body weight / body weight gain + systemic / …
[18] = group: reproductive, reproductive / offspring survival early / dead fetuses / dead fetuses
[19] = systemic / clinical chemistry / gamma glutamyl transferase (ggt) / gamma glutamyl transferase (ggt) + systemic / in life observation / …

## CN/C(=N\[N+](=O)[O-])NCc1cnc(Cl)s1 [Clothianidin]
[1]
  LEL: 202 mg/kg/day
  LOAEL: 202 mg/kg/day
  NOAEL: 27.9 mg/kg/day
[2]; [10]
  LEL: 36.3 mg/kg/day
  NEL: 16.6 mg/kg/day
[2]; [11]
  LOAEL: 52.9 mg/kg/day
  NOAEL: 40.1 mg/kg/day
[3]; group: developmental, developmental / developmental malformation / bone / ossification sites + developmental / developmental malformation / lung / absent
  LOAEL: 75 mg/kg/day
[3]; [12]
  LEL: 75 mg/kg/day
  NEL: 25 mg/kg/day
  NOAEL: 25 mg/kg/day
[3]; [13]
  LEL: 75 mg/kg/day
  LOAEL: 75 mg/kg/day
  NEL: 25 mg/kg/day
  NOAEL: 25 mg/kg/day
[4]; systemic / in life observation / body weight / body weight + systemic / in life observation / body weight / body weight gain
  LOAEL: 216 mg/kg/day
[4]; systemic / in life observation / body weight / body weight + systemic / in life observation / body weight / body weight gain + systemic / …
  NOAEL: 65.1 mg/kg/day
[4]; systemic / in life observation / clinical signs / excessive or spontaneous vocalization
  LEL: 171 mg/kg/day
[4]; systemic / in life observation / clinical signs / excessive or spontaneous vocalization + systemic / in life observation / body weight / …
  NEL: 47.2 mg/kg/day
[5]
  LEL: 40.9 mg/kg/day
  LOAEL: 40.9 mg/kg/day
  NEL: 19.3 mg/kg/day
  NOAEL: 19.3 mg/kg/day
[6]; [14]
  LOAEL: 97.8 mg/kg/day
  NOAEL: 32.5 mg/kg/day
[6]; [15]
  LEL: 9.7 mg/kg/day
  NEL: < 9.7 mg/kg/day
[7]; [16]
  LEL: 34.3 mg/kg/day
  LOAEL: 34.3 mg/kg/day
  NEL: 10.7 mg/kg/day
  NOAEL: 10.7 mg/kg/day
[7]; [17]
  LEL: 163 mg/kg/day
  LOAEL: 163 mg/kg/day
  NEL: 31.2 mg/kg/day
  NOAEL: 31.2 mg/kg/day
[7]; [18]
  LEL: 31.2 mg/kg/day
  LOAEL: 31.2 mg/kg/day
  NEL: 9.8 mg/kg/day
  NOAEL: 9.8 mg/kg/day

## CCc1cccc(C)c1N(C(=O)CS(=O)(=O)O)C(C)COC (stereo unspecified) [Metolachlor ESA]
[8]; systemic / clinical chemistry / gamma glutamyl transferase (ggt) / gamma glutamyl transferase (ggt) + systemic / clinical chemistry / …
  LEL: 200 mg/kg/day
[8]; [19]
  LOAEL: > 1000 mg/kg/day
  NOAEL: ≥ 1000 mg/kg/day
[9]
  LEL: 1540 mg/kg/day
  LOAEL: > 1540 mg/kg/day
  NEL: 427 mg/kg/day
  NOAEL: ≥ 1540 mg/kg/day
